Assays:
[1] = target: HDAC8 (Homo sapiens (Human), UniProt Q9BY41); settings: read-out: HDAC8 IC50
[2] = target: HDAC1 (Homo sapiens (Human), UniProt Q13547); settings: read-out: HDAC1 IC50
Sequence of HDAC1 (Q13547 whole entry): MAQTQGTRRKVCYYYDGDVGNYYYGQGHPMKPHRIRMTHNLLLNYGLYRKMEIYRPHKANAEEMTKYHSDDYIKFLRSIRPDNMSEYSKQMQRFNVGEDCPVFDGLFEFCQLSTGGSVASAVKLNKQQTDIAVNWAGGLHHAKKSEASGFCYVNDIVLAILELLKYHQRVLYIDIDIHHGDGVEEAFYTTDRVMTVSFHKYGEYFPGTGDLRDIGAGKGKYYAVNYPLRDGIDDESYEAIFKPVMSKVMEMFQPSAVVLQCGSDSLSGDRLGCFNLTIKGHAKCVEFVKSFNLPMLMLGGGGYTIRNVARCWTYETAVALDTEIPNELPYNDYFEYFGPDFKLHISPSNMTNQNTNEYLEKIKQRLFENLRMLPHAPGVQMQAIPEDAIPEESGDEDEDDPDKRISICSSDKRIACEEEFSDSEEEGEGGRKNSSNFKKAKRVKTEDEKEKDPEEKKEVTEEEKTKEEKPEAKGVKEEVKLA

Sequence of HDAC8 (Q9BY41 whole entry): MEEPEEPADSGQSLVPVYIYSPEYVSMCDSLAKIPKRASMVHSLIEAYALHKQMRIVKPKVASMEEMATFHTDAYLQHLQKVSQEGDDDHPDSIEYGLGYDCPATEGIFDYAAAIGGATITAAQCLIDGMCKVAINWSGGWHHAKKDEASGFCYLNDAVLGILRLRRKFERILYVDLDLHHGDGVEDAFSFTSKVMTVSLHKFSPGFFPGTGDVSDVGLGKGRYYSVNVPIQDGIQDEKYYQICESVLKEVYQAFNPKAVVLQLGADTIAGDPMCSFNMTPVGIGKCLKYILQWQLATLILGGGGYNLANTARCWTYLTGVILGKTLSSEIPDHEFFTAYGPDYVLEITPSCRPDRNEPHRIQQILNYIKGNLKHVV

| SMILES | IC50 [1] [nM] | IC50 [2] [nM] |
| --- | --- | --- |
| O=C1NCCN(c2ccc(-c3noc(C(F)(F)F)n3)cn2)C1c1cccc(F)c1 (racemic) [Example 132, 3-(3-fluorophenyl)-4-(5-(5-(trifluoromethyl)-1,2,4-oxadiazol-3-yl)pyridin-2-yl)piperazin-2-one] | 630 |  |
| FC(F)(F)c1cccc(C2COCCN2c2ccc(-c3noc(C(F)(F)F)n3)cn2)c1 (racemic) [Example 146, 4-(5-(5-(trifluoromethyl)-1,2,4-oxadiazol-3-yl)pyridin-2-yl)-3-(3-(trifluoromethyl)phenyl)morpholine] | 20000 |  |
| FC(F)(F)c1nc(-c2ccc(N3CCCCC3c3ccccn3)nc2)no1 (racemic) [Example 147, 3-(6-(2-(pyridin-2-yl)piperidin-1-yl)pyridin-3-yl)-5-(trifluoromethyl)-1,2,4-oxadiazole] | 3200 |  |
| FC(F)(F)c1nc(-c2ccc(N3CCCC3c3ccncc3)nc2)no1 (racemic) [Example 150, 3-(6-(2-(pyridin-4-yl)pyrrolidin-1-yl)pyridin-3-yl)-5-(trifluoromethyl)-1,2,4-oxadiazole] | 1800 |  |
| FC(F)(F)c1nc(-c2ccc(N3CCCC3c3cccnc3)nc2)no1 (racemic) [Example 151, 3-(6-(2-(pyridin-3-yl)pyrrolidin-1-yl)pyridin-3-yl)-5-(trifluoromethyl)-1,2,4-oxadiazole] | 1600 |  |
| OCC1CC(c2ccccc2)N(c2ccc(-c3noc(C(F)(F)F)n3)cn2)C1 (racemic) [Example 152, (5-phenyl-1-(5-(5-(trifluoromethyl)-1,2,4-oxadiazol-3-yl)pyridin-2-yl)pyrrolidin-3-yl)methanol] | 840 |  |
| FC(F)(F)c1nc(-c2ccc(N3CCCC3c3ccccn3)nc2)no1 (racemic) [Example 154, 3-(6-(2-(pyridin-2-yl)pyrrolidin-1-yl)pyridin-3-yl)-5-(trifluoromethyl)-1,2,4-oxadiazole] | 3400 |  |
| Cc1nonc1C1CCCN1c1ccc(-c2noc(C(F)(F)F)n2)cn1 (racemic) [Example 155, 3-(6-(2-(4-methyl-1,2,5-oxadiazol-3-yl)pyrrolidin-1-yl)pyridin-3-yl)-5-(trifluoromethyl)-1,2,4-oxadiazole] | 1800 |  |
| FC(F)(F)c1nc(-c2ccc(N3CCCCC3c3cccnc3)nc2)no1 (racemic) [Example 157, 3-(6-(2-(pyridin-3-yl)piperidin-1-yl)pyridin-3-yl)-5-(trifluoromethyl)-1,2,4-oxadiazole] | 3300 |  |
| CCOC(=O)N1CCN(c2ccc(-c3noc(C(F)(F)F)n3)cn2)C(c2ccccc2)C1 (racemic) [Example 159, ethyl 3-phenyl-4-(5-(5-(trifluoromethyl)-1,2,4-oxadiazol-3-yl)pyridin-2-yl)piperazine-1-carboxylate] | 4000 |  |
| FC(F)(F)c1nc(-c2ccc(CNCC3CN(Cc4ccccc4)CCO3)nc2)no1 (racemic) [Example 453, 1-(4-benzylmorpholin-2-yl)-N-({5-[5-(trifluoromethyl)-1,2,4-oxadiazol-3-yl]pyridin-2-yl}methyl)methanamine] | 1900 |  |
| FC(F)(F)c1nc(-c2ccc(CNCC3CN(c4ccccc4)CCO3)nc2)no1 (racemic) [Example 454, 1-(4-phenylmorpholin-2-yl)-N-({5-[5-(trifluoromethyl)-1,2,4-oxadiazol-3-yl]pyridin-2-yl}methyl)methanamine] | 1700 |  |
| Cc1noc([C@H]2CCCCN2c2ccc(-c3noc(C(F)(F)F)n3)cn2)n1 [Example 138, (R)-3-methyl-5-(1-(5-(5-(trifluoromethyl)-1,2,4-oxadiazol-3-yl)pyridin-2-yl)piperidin-2-yl)-1,2,4-oxadiazole] | 1200 |  |
| FC(F)(F)c1nc(-c2ccnc(OCc3cncc(N4CCNCC4)n3)c2)no1 [Example 216, 2-piperazin-1-yl-6-[({4-[5-(trifluoromethyl)-1,2,4-oxadiazol-3-yl]pyridin-2-yl}oxy)methyl]pyrazine] |  | 1100 |
| FC(F)(F)c1nc(-c2ccnc(OCc3ncccc3Cl)c2)no1 [Example 217, 3-chloro-2-[({4-[5-(trifluoromethyl)-1,2,4-oxadiazol-3-yl]pyridin-2-yl}oxy)methyl]pyridine] |  | 3800 |
| FC(F)Cn1nc(COc2cc(-c3noc(C(F)(F)F)n3)ccn2)cc1C1CC1 [Example 218, 2-{[5-cyclopropyl-1-(2,2-difluoroethyl)-1H-pyrazol-3-yl]methoxy}-4-[5-(trifluoromethyl)-1,2,4-oxadiazol-3-yl]pyridine] |  | 870 |
| FC(F)(F)Cn1nc(COc2cc(-c3noc(C(F)(F)F)n3)ccn2)cc1C1CC1 [Example 219, 2-{[5-cyclopropyl-1-(2,2,2-trifluoroethyl)-1H-pyrazol-3-yl]methoxy}-4-[5-(trifluoromethyl)-1,2,4-oxadiazol-3-yl]pyridine] |  | 920 |
| Cc1cc(COc2cc(-c3noc(C(F)(F)F)n3)ccn2)nn1CC(F)F [Example 220, 2-{[1-(2,2-difluoroethyl)-5-methyl-1H-pyrazol-3-yl]methoxy}-4-[5-(trifluoromethyl)-1,2,4-oxadiazol-3-yl]pyridine] |  | 1200 |
| FC(F)(F)c1nc(-c2ccnc(OCc3ccn(C4CC4)n3)c2)no1 [Example 222, 2-[(1-cyclopropyl-1H-pyrazol-3-yl)methoxy]-4-[5-(trifluoromethyl)-1,2,4-oxadiazol-3-yl]pyridine] |  | 3500 |

| SMILES | IC50 [1] [nM] | IC50 [2] [nM] |
| --- | --- | --- |
| CC(C)n1ccc(COc2cc(-c3noc(C(F)(F)F)n3)ccn2)n1 [Example 223, 2-{[1-(1-methylethyl)-1H-pyrazol-3-yl]methoxy}-4-[5-(trifluoromethyl)-1,2,4-oxadiazol-3-yl]pyridine] |  | 2400 |
| Cn1nc(COc2cc(-c3noc(C(F)(F)F)n3)ccn2)cc1C(C)(C)C [Example 224, 2-[(5-tert-butyl-1-methyl-1H-pyrazol-3-yl)methoxy]-4-[5-(trifluoromethyl)-1,2,4-oxadiazol-3-yl]pyridine] |  | 1200 |
| O=C1CCc2ccc(Br)cc2N1Cc1ccc(-c2noc(C(F)(F)F)n2)cc1 [Example 319, 7-bromo-1-{4-[5-(trifluoromethyl)-1,2,4-oxadiazol-3-yl]benzyl}-3,4-dihydroquinolin-2(1H)-one] |  | 180 |
| O=c1ccc2ccc(F)cc2n1Cc1ccc(-c2noc(C(F)(F)F)n2)cc1 [Example 322, 7-fluoro-1-{4-[5-(trifluoromethyl)-1,2,4-oxadiazol-3-yl]benzyl}quinolin-2(1H)-one] |  | 260 |
| O=C1CCc2ccc(F)cc2N1Cc1ccc(-c2noc(C(F)(F)F)n2)cn1 [Example 323, 7-fluoro-1-({5-[5-(trifluoromethyl)-1,2,4-oxadiazol-3-yl]pyridin-2-yl}methyl)-3,4-dihydroquinolin-2(1H)-one] |  | 53 |
| O=C1CCc2ccccc2N1Cc1ccc(-c2noc(C(F)(F)F)n2)cn1 [Example 324, 1-({5-[5-(trifluoromethyl)-1,2,4-oxadiazol-3-yl]pyridin-2-yl}methyl)-3,4-dihydroquinolin-2(1H)-one] |  | 150 |
| O=C1c2cc(F)ccc2CCN1Cc1ccc(-c2noc(C(F)(F)F)n2)cn1 [Example 327, 7-fluoro-2-({5-[5-(trifluoromethyl)-1,2,4-oxadiazol-3-yl]pyridin-2-yl}methyl)-3,4-dihydroisoquinolin-1(2H)-one] |  | 640 |
| O=C1CCc2ncccc2N1Cc1ccc(-c2noc(C(F)(F)F)n2)cn1 [Example 328, 1-({5-[5-(trifluoromethyl)-1,2,4-oxadiazol-3-yl]pyridin-2-yl}methyl)-3,4-dihydro-1,5-naphthyridin-2(1H)-one] |  | 580 |
| Fc1ccc2c(c1)N(Cc1ccc(-c3noc(C(F)(F)F)n3)cn1)CCO2 [Example 347, 6-fluoro-4-({5-[5-(trifluoromethyl)-1,2,4-oxadiazol-3-yl]pyridin-2-yl}methyl)-3,4-dihydro-2H-1,4-benzoxazine] |  | 600 |
| CC1(Cc2ccc(-c3noc(C(F)(F)F)n3)cc2)C(=O)Nc2ccc(F)cc21 (stereo not shown) [Example 348, 5-fluoro-3-methyl-3-{4-[5-(trifluoromethyl)-1,2,4-oxadiazol-3-yl]benzyl}-1,3-dihydro-2H-indol-2-one] |  | 2400 |
| FC(F)(F)c1nc(-c2ccc(CNc3cccc(-c4cnco4)c3)nc2)no1 [Example 360, 3-(1,3-oxazol-5-yl)-N-({5-[5-(trifluoromethyl)-1,2,4-oxadiazol-3-yl]pyridin-2-yl}methyl)aniline] |  | 7.6 |
| FC(F)(F)c1nc(-c2ccc(CNc3cccc(-n4cncn4)c3)nc2)no1 [Example 364, 3-(1H-1,2,4-triazol-1-yl)-N-({5-[5-(trifluoromethyl)-1,2,4-oxadiazol-3-yl]pyridin-2-yl}methyl)aniline] |  | 60 |
| NC(=O)c1cccc(CCOc2cc(-c3noc(C(F)(F)F)n3)ccn2)c1 [Example 459, 3-[2-({4-[5-(trifluoromethyl)-1,2,4-oxadiazol-3-yl]pyridin-2-yl}oxy)ethyl]benzamide] |  | 1800 |
| O=c1ccc2ccccc2n1Cc1ccc(-c2noc(C(F)(F)F)n2)cn1 [Example 460, 1-({5-[5-(trifluoromethyl)-1,2,4-oxadiazol-3-yl]pyridin-2-yl}methyl)quinolin-2(1H)-one] |  | 99 |
| O=C1CSc2ccccc2N1Cc1ccc(-c2noc(C(F)(F)F)n2)cn1 [Example 463, 4-({5-[5-(trifluoromethyl)-1,2,4-oxadiazol-3-yl]pyridin-2-yl}methyl)-2H-1,4-benzothiazin-3(4H)-one] |  | 130 |
| O=C1CCc2cc(C(F)(F)F)ccc2N1Cc1ccc(-c2noc(C(F)(F)F)n2)cn1 [Example 464, 6-(trifluoromethyl)-1-({5-[5-(trifluoromethyl)-1,2,4-oxadiazol-3-yl]pyridin-2-yl}methyl)-3,4-dihydroquinolin-2(1H)-one] |  | 300 |
| Cc1nc2cc(F)ccc2n1Cc1ccc(-c2noc(C(F)(F)F)n2)cn1 [Example 466, 5-fluoro-2-methyl-1-({5-[5-(trifluoromethyl)-1,2,4-oxadiazol-3-yl]pyridin-2-yl}methyl)-1H-benzimidazole] |  | 840 |
| O=c1cnc2ccccc2n1Cc1ccc(-c2noc(C(F)(F)F)n2)cn1 [Example 467, 1-({5-[5-(trifluoromethyl)-1,2,4-oxadiazol-3-yl]pyridin-2-yl}methyl)quinoxalin-2(1H)-one] |  | 170 |

Reference: patent publication US11066396B2 (priority 2016, dated 2021)
